Several values for one entry are separate records, joined by “and”; a condition that tells them apart may be missing. Equal entries are not always repeated.
Tests used:
Assay in all cases: PDSP GPCR panel primary binding assays at 10 μM
[1] = target: T1, cloned human or rodent CNS receptors, channels, and transporters (PDSP panel) (Rattus norvegicus, UniProt P16257); conditions: primary assay; for Inhibition 3: replicate 3
T1 construct: expressed in transfected cells
Procedure, shortened: (§1)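 Primary screen: 10 μM, quadruplicate, displacement of radio-labeled standard ligand. Hit cut-off >50% mean displacement → secondary 11-point dose-response, triplicate. H3, PBR, GABAA excluded from follow-up.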

[2] = target: T2, cloned human or rodent CNS receptors, channels, and transporters (PDSP panel) (Homo sapiens, UniProt P35368); conditions: primary assay
T2 construct: expressed in transfected cells
T2 sequence (P35368 1-520): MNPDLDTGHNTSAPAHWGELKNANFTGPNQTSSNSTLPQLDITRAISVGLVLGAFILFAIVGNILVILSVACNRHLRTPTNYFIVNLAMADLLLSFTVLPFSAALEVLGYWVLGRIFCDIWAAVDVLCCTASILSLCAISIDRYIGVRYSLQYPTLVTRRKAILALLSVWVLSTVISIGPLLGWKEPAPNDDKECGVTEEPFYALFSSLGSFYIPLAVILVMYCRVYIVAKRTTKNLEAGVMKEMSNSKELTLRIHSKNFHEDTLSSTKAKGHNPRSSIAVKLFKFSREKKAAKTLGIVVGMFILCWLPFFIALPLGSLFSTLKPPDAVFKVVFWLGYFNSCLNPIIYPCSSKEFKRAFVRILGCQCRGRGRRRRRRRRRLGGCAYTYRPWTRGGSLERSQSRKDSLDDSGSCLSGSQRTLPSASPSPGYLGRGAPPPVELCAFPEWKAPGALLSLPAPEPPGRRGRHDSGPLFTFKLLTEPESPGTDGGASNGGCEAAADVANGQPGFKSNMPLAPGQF
Procedure, shortened: as §1

[3] = target: T3, cloned human or rodent CNS receptors, channels, and transporters (PDSP panel) (Homo sapiens, UniProt P18089); conditions: primary assay
T3 construct: expressed in transfected cells
T3 sequence (P18089 1-450): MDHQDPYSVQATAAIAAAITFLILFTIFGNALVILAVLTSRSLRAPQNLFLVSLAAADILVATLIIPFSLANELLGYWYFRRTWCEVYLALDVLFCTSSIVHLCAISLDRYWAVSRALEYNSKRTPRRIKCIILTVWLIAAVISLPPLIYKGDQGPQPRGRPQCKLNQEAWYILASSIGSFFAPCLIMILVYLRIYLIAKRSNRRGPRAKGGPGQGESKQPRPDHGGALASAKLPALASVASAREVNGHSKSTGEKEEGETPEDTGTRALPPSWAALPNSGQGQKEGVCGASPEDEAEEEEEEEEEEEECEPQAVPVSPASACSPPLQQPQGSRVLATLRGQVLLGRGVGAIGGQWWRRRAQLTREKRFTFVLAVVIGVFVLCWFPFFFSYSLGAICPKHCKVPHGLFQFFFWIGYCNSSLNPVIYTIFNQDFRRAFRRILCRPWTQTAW
Procedure, shortened: as §1

[4] = target: T4, cloned human or rodent CNS receptors, channels, and transporters (PDSP panel) (Homo sapiens, UniProt P28221); conditions: primary assay
T4 construct: expressed in transfected cells
Procedure, shortened: as §1

[5] = target: T5, cloned human or rodent CNS receptors, channels, and transporters (PDSP panel) (Homo sapiens, UniProt P21728); conditions: primary assay
T5 construct: expressed in transfected cells
Procedure, shortened: as §1

[6] = target: T6, cloned human or rodent CNS receptors, channels, and transporters (PDSP panel) (Homo sapiens, UniProt P20309); conditions: primary assay
T6 construct: expressed in transfected cells
Procedure, shortened: as §1

[7] = target: T7, cloned human or rodent CNS receptors, channels, and transporters (PDSP panel) (Homo sapiens, UniProt P08912); conditions: primary assay
T7 construct: expressed in transfected cells
T7 sequence (P08912 1-532): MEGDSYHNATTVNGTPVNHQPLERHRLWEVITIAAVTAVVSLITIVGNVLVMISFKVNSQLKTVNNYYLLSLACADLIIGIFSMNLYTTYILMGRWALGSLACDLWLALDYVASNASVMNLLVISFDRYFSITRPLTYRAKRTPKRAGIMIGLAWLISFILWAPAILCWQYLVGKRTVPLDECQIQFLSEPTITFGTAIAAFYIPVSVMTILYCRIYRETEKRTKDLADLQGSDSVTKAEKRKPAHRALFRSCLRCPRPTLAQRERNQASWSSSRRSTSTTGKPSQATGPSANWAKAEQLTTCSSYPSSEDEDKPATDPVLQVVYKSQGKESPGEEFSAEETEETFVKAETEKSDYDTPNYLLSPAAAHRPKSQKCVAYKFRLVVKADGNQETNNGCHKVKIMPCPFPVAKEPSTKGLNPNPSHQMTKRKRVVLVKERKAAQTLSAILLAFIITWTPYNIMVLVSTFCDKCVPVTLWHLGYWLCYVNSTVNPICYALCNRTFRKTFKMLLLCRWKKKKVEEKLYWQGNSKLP
Procedure, shortened: as §1

T5 sequence (P21728 whole entry): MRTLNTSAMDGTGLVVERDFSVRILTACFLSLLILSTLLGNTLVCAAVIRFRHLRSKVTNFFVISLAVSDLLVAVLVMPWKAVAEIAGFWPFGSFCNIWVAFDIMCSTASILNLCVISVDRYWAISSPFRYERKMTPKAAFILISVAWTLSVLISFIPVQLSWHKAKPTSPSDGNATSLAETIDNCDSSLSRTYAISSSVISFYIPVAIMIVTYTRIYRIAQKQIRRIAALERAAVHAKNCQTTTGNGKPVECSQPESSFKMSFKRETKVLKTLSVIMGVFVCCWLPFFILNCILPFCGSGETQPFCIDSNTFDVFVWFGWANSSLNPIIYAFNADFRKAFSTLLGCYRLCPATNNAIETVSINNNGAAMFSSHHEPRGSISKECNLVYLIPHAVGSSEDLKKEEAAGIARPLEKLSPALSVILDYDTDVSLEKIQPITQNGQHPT
T4 sequence (P28221 whole entry): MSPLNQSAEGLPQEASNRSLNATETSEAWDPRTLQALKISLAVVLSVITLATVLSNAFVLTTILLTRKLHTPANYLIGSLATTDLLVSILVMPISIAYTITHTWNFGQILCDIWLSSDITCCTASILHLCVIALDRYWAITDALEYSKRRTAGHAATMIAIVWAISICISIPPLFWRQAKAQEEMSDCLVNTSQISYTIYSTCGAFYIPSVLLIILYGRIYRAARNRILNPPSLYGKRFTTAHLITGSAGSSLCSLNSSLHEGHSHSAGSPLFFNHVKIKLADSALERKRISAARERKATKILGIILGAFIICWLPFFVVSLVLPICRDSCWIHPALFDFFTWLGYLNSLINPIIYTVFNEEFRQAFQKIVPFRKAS
T6 sequence (P20309 whole entry): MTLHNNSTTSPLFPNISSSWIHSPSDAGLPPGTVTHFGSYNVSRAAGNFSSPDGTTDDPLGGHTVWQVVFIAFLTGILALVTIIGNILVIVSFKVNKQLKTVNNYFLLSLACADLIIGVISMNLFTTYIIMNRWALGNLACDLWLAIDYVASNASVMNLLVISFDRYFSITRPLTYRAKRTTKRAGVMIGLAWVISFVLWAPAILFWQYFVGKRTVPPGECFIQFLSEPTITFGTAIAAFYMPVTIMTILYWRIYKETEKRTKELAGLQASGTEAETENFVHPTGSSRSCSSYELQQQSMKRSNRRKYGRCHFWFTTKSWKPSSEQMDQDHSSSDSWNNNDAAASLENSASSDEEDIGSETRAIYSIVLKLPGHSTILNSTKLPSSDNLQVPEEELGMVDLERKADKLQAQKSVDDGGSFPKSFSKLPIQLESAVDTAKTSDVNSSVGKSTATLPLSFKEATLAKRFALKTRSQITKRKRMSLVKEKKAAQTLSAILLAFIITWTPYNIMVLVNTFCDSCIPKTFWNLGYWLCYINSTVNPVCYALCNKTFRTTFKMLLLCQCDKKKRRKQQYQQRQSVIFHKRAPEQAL

For `CNc1nc(C)nc(N[C@H]2CCC[C@@H](C(=O)NCc3ccc(C#N)cc3C(F)(F)F)C2)n1` [UNC10302679A, GSK2256294A], the Mean % ([1]; PBR, mean inhibition) was 61.99% and 50.52%, the “Inhibition 1” value ([1]; PBR, replicate 1) was 64.51% and 57.62% and the “Inhibition 2” value ([1]; PBR, replicate 2) was 61.79% and 51.24%. For the same compound, the “Inhibition 3” value ([1]; PBR) was 61.7% and 45.98%, the “Inhibition 4” value ([1]; PBR, replicate 4) was 59.94% and 47.25% and the Mean % ([2]; Alpha1B, mean inhibition) was -0.37%. The “Inhibition 1” value ([2]; Alpha1B, replicate 1) was -2.21%, the “Inhibition 2” value ([2]; Alpha1B, replicate 2) was 6.62% and the “Inhibition 3” value ([2]; Alpha1B, replicate 3) was -2.78%. The “Inhibition 4” value ([2]; Alpha1B, replicate 4) was -3.12%, the Mean % ([3]; Alpha2B, mean inhibition) was 9.85% and the “Inhibition 1” value ([3]; Alpha2B, replicate 1) was 12.19%. For the same compound, the “Inhibition 2” value ([3]; Alpha2B, replicate 2) was 4.49%, the “Inhibition 3” value ([3]; Alpha2B, replicate 3) was 0.5% and the “Inhibition 4” value ([3]; Alpha2B, replicate 4) was 22.22%. For the same compound, the Mean % ([4]; 5-HT1D, mean inhibition) was 6.14%, the “Inhibition 1” value ([4]; 5-HT1D, replicate 1) was 26.13% and the “Inhibition 2” value ([4]; 5-HT1D, replicate 2) was 1.56%. For the same compound, the “Inhibition 3” value ([4]; 5-HT1D, replicate 3) was 1.56%, the “Inhibition 4” value ([4]; 5-HT1D, replicate 4) was -4.69% and the Mean % ([5]; D1, mean inhibition) was 9.96%. For the same compound, the “Inhibition 1” value ([5]; D1, replicate 1) was 12.39%, the “Inhibition 2” value ([5]; D1, replicate 2) was 11.9% and the “Inhibition 3” value ([5]; D1, replicate 3) was 10.77%. The “Inhibition 4” value ([5]; D1, replicate 4) was 4.78%, the Mean % ([6]; M3, mean inhibition) was 1.63% and the “Inhibition 1” value ([6]; M3, replicate 1) was 7.99%. The “Inhibition 2” value ([6]; M3, replicate 2) was 2.67%, the “Inhibition 3” value ([6]; M3, replicate 3) was -7.08% and the “Inhibition 4” value ([6]; M3, replicate 4) was 2.95%. The Mean % ([7]; M5, mean inhibition) was -6.81%, the “Inhibition 1” value ([7]; M5, replicate 1) was 1.27% and the “Inhibition 2” value ([7]; M5, replicate 2) was -10.6%. For the same compound, the “Inhibition 3” value ([7]; M5, replicate 3) was -10.81% and the “Inhibition 4” value ([7]; M5, replicate 4) was -7.08%.
In the case of `CCC(=O)N1CCC(NC(=O)Nc2ccc(OC(F)(F)F)cc2)CC1` [UNC10302681A, TPPU], the Mean % ([1]; PBR, mean inhibition) is reported as 4.31% and 5.42%, the “Inhibition 1” value ([1]; PBR, replicate 1) is reported as 20.73% and 18.86% and the “Inhibition 2” value ([1]; PBR, replicate 2) is reported as -4.07% and -6.82%. For the same compound, the “Inhibition 3” value ([1]; PBR) was -2.57% and 2.75%, the “Inhibition 4” value ([1]; PBR, replicate 4) was 3.14% and 6.9% and the Mean % ([2]; Alpha1B, mean inhibition) was 7.22%. The “Inhibition 1” value ([2]; Alpha1B, replicate 1) was 0.2%, the “Inhibition 2” value ([2]; Alpha1B, replicate 2) was 16.24% and the “Inhibition 3” value ([2]; Alpha1B, replicate 3) was 7.3%. For the same compound, the “Inhibition 4” value ([2]; Alpha1B, replicate 4) was 5.13%, the Mean % ([3]; Alpha2B, mean inhibition) was 6.32% and the “Inhibition 1” value ([3]; Alpha2B, replicate 1) was 1.27%. The “Inhibition 2” value ([3]; Alpha2B, replicate 2) was 8.98%, the “Inhibition 3” value ([3]; Alpha2B, replicate 3) was 5.54% and the “Inhibition 4” value ([3]; Alpha2B, replicate 4) was 9.47%. The Mean % ([4]; 5-HT1D, mean inhibition) was 0.73%, the “Inhibition 1” value ([4]; 5-HT1D, replicate 1) was 17.8% and the “Inhibition 2” value ([4]; 5-HT1D, replicate 2) was -3.44%. For the same compound, the “Inhibition 3” value ([4]; 5-HT1D, replicate 3) was -7.6%, the “Inhibition 4” value ([4]; 5-HT1D, replicate 4) was -3.85% and the Mean % ([5]; D1, mean inhibition) was -1.82%. The “Inhibition 1” value ([5]; D1, replicate 1) was -5.26%, the “Inhibition 2” value ([5]; D1, replicate 2) was -2.83% and the “Inhibition 3” value ([5]; D1, replicate 3) was -3.8%. The “Inhibition 4” value ([5]; D1, replicate 4) was 4.61%, the Mean % ([6]; M3, mean inhibition) was 3.57% and the “Inhibition 1” value ([6]; M3, replicate 1) was 4.75%. For the same compound, the “Inhibition 2” value ([6]; M3, replicate 2) was 5.92%, the “Inhibition 3” value ([6]; M3, replicate 3) was 13.87% and the “Inhibition 4” value ([6]; M3, replicate 4) was -10.26%. For the same compound, the Mean % ([7]; M5, mean inhibition) was -2.23%, the “Inhibition 1” value ([7]; M5, replicate 1) was 18.08% and the “Inhibition 2” value ([7]; M5, replicate 2) was -1.14%. The “Inhibition 3” value ([7]; M5, replicate 3) was -10.91% and the “Inhibition 4” value ([7]; M5, replicate 4) was -14.93%.
`Cl.NC(=O)c1cnc(N[C@@H]2CCCC[C@@H]2N)nc1Nc1cccc(-n2nccn2)c1` [UNC10302682A, P505-15 (PRT06207 HCl)] was tested, and the “Inhibition 1” value ([1]; Receptor PBR, 10 μM) was 32.16% and 27.63%, the “Inhibition 2” value ([1]; Receptor PBR, 10 μM) was 2.97% and 6.1% and the “Inhibition 4” value ([1]; Receptor PBR, 10 μM) was 18.35% and 12.24%. The Mean % ([1]; Receptor PBR, 10 μM, mean of Inhibition 1-4) was 14.68% and 16.23%, the “Inhibition 1” value ([2]; Receptor Alpha1B, 10 μM) was 60.7% and the “Inhibition 2” value ([2]; Receptor Alpha1B, 10 μM) was 57.49%. For the same compound, the “Inhibition 3” value ([2]; Receptor Alpha1B, 10 μM) was 49.58%, the “Inhibition 4” value ([2]; Receptor Alpha1B, 10 μM) was 52.45% and the Mean % ([2]; Receptor Alpha1B, 10 μM, mean of Inhibition 1-4) was 55.06%. For the same compound, the “Inhibition 1” value ([3]; Receptor Alpha2B, 10 μM) was 4.86%, the “Inhibition 2” value ([3]; Receptor Alpha2B, 10 μM) was 6.29% and the “Inhibition 3” value ([3]; Receptor Alpha2B, 10 μM) was -7.3%. The “Inhibition 4” value ([3]; Receptor Alpha2B, 10 μM) was -0.22%, the Mean % ([3]; Receptor Alpha2B, 10 μM, mean of Inhibition 1-4) was 0.91% and the “Inhibition 1” value ([4]; Receptor 5-HT1D, 10 μM) was 74.44%. For the same compound, the “Inhibition 2” value ([4]; Receptor 5-HT1D, 10 μM) was 57.78%, the “Inhibition 3” value ([4]; Receptor 5-HT1D, 10 μM) was 54.87% and the “Inhibition 4” value ([4]; Receptor 5-HT1D, 10 μM) was 71.94%. The Mean % ([4]; Receptor 5-HT1D, 10 μM, mean of Inhibition 1-4) was 64.76%, the “Inhibition 1” value ([5]; Receptor D1, 10 μM) was 10.12% and the “Inhibition 2” value ([5]; Receptor D1, 10 μM) was 11.25%. For the same compound, the “Inhibition 3” value ([5]; Receptor D1, 10 μM) was 12.71%, the “Inhibition 4” value ([5]; Receptor D1, 10 μM) was 8.82% and the Mean % ([5]; Receptor D1, 10 μM, mean of Inhibition 1-4) was 10.73%. For the same compound, the “Inhibition 1” value ([6]; Receptor M3, 10 μM) was 28.46%, the “Inhibition 2” value ([6]; Receptor M3, 10 μM) was 2.32% and the “Inhibition 3” value ([6]; Receptor M3, 10 μM) was 15.74%. The “Inhibition 4” value ([6]; Receptor M3, 10 μM) was 10.41%, the Mean % ([6]; Receptor M3, 10 μM, mean of Inhibition 1-4) was 14.23% and the “Inhibition 1” value ([7]; Receptor M5, 10 μM) was 25.92%. The “Inhibition 2” value ([7]; Receptor M5, 10 μM) was 13.95%, the “Inhibition 3” value ([7]; Receptor M5, 10 μM) was 6.2% and the “Inhibition 4” value ([7]; Receptor M5, 10 μM) was -1.55%. For the same compound, the Mean % ([7]; Receptor M5, 10 μM, mean of Inhibition 1-4) was 11.13%.

Reference: paper PMC9005681, “Use of AD Informer Set compounds to explore validity of novel targets in Alzheimer's disease pathology” (Alzheimer's & Dementia : Translational Research & Clinical …, 2022)
